In US9708314B2, “Heterocyclic amide compound” (NISSAN CHEMICAL INDUSTRIES, LTD., priority 2013, dated 2017):

Key:
Assay type in all cases: in vivo
Lolium multiflorum Lam. = test: Test Example 4: herbicidal effect by application to foliage (diluvial soil, plastic box); details: foliage application, 320 g/ha
Summary of the method: (§1)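 Greenhouse plants (25° C. to 30° C., 14 d, diluvial soil) receive a foliar spray of water-diluted emulsifiable formulation at defined g/ha. Grading after 3 weeks uses a six-step herbicidal-ratio scale, with 4 covering 70% to <90% and 1 covering 5% to <20%.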

Amaranthus retroflexus = test: as above; details: foliage application, 320 g/ha
Summary of the method: as §1

Digitaria ciliaris = test: as above; details: foliage application, 320 g/ha
Summary of the method: as §1

Alopecurus myosuroides = test: as above; details: foliage application, 320 g/ha
Summary of the method: as §1

Stellaria media = test: as above; details: foliage application, 320 g/ha
Summary of the method: as §1

Setaria viridis = test: as above; details: foliage application, 320 g/ha
Summary of the method: as §1

[1] = system: Echinochloa oryzacola Vasing.; test: Test Example 1: herbicidal activity, application before weed generation in submerged conditions; details: Application herbicide amount 320 g/ha; Seventeenth Table
Summary of the method: (§2)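 Water-diluted emulsion formulation is applied onto flood water (4 cm deep) covering alluvial soil on the day weed seeds are sown, after transplanting 2.5 leaf stage rice. Rates are expressed per hectare. Injury or control is graded 0–5 three weeks later.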

Scirpus juncoides = test: as above; details: Application herbicide amount 320 g/ha; Seventeenth Table
Summary of the method: as §2

Monochoria vaginalis = test: as above; details: Application herbicide amount 320 g/ha; Seventeenth Table
Summary of the method: as §2

SMILES	K (Lolium multiflorum Lam.) herbicidal effect grade (Lolium multiflorum Lam.)	N (Amaranthus retroflexus) herbicidal effect grade (Amaranthus retroflexus)	F (Digitaria ciliaris) herbicidal effect grade (Digitaria ciliaris)	J (Alopecurus myosuroides) herbicidal effect grade (Alopecurus myosuroides)	P (Stellaria media) herbicidal effect grade (Stellaria media)	G (Setaria viridis) herbicidal effect grade (Setaria viridis)	A: Echinochloa oryzicola Vasing. (herbicidal effect grade) [1]	B: Scirpus juncoides (herbicidal effect grade) (Scirpus juncoides)	C: Monochoria vaginalis (herbicidal effect grade) (Monochoria vaginalis)
COc1ccccc1-c1nnc2c(C(=O)Nc3nnnn3C)ccc(C(F)(F)F)n12 [2-045]	1 (Herbicidal ratio of 5% or more and less than 20%)	5 (Herbicidal ratio of 90% or more (almost completely withered))	5 (Herbicidal ratio of 90% or more (almost completely withered))	1 (Herbicidal ratio of 5% or more and less than 20%)	5 (Herbicidal ratio of 90% or more (almost completely withered))	4 (Herbicidal ratio of 70% or more and less than 90%)	5 (Herbicidal ratio of 90% or more (almost completely withered))	5 (Herbicidal ratio of 90% or more (almost completely withered))	5 (Herbicidal ratio of 90% or more (almost completely withered))
COC(=O)Cn1nnnc1NC(=O)c1ccc(C(F)(F)F)n2c(C(C)C)nnc12 [2-046]	0 (Herbicidal ratio of 5% or less (almost no effect))	4 (Herbicidal ratio of 70% or more and less than 90%)	0 (Herbicidal ratio of 5% or less (almost no effect))	0 (Herbicidal ratio of 5% or less (almost no effect))	2 (Herbicidal ratio of 20% or more and less than 40%)	1 (Herbicidal ratio of 5% or more and less than 20%)	4 (Herbicidal ratio of 70% or more and less than 90%)	0 (Herbicidal ratio of 5% or less (almost no effect))	0 (Herbicidal ratio of 5% or less (almost no effect))
CC(C)c1nnc2c(C(=O)Nc3nnnn3C)ccc(C(F)F)n12 [2-047]	1 (Herbicidal ratio of 5% or more and less than 20%)	5 (Herbicidal ratio of 90% or more (almost completely withered))	5 (Herbicidal ratio of 90% or more (almost completely withered))	1 (Herbicidal ratio of 5% or more and less than 20%)	4 (Herbicidal ratio of 70% or more and less than 90%)	3 (Herbicidal ratio of 40% or more and less than 70%)	5 (Herbicidal ratio of 90% or more (almost completely withered))	4 (Herbicidal ratio of 70% or more and less than 90%)	5 (Herbicidal ratio of 90% or more (almost completely withered))
CSCCn1nnnc1NC(=O)c1ccc(C(F)(F)F)n2c(C(C)C)nnc12 [2-048]	4 (Herbicidal ratio of 70% or more and less than 90%)	5 (Herbicidal ratio of 90% or more (almost completely withered))	5 (Herbicidal ratio of 90% or more (almost completely withered))	3 (Herbicidal ratio of 40% or more and less than 70%)	4 (Herbicidal ratio of 70% or more and less than 90%)	5 (Herbicidal ratio of 90% or more (almost completely withered))	5 (Herbicidal ratio of 90% or more (almost completely withered))	5 (Herbicidal ratio of 90% or more (almost completely withered))	4 (Herbicidal ratio of 70% or more and less than 90%)
CN(C)c1nnc2c(C(=O)Nc3nnnn3C)ccc(C(F)(F)F)n12 [2-051]	4 (Herbicidal ratio of 70% or more and less than 90%)	5 (Herbicidal ratio of 90% or more (almost completely withered))	5 (Herbicidal ratio of 90% or more (almost completely withered))	4 (Herbicidal ratio of 70% or more and less than 90%)	5 (Herbicidal ratio of 90% or more (almost completely withered))	5 (Herbicidal ratio of 90% or more (almost completely withered))	5 (Herbicidal ratio of 90% or more (almost completely withered))	5 (Herbicidal ratio of 90% or more (almost completely withered))	5 (Herbicidal ratio of 90% or more (almost completely withered))
CSC(C)c1nnc2c(C(=O)Nc3nnnn3C)ccc(C(F)(F)F)n12 (stereo not drawn) [2-052]	5 (Herbicidal ratio of 90% or more (almost completely withered))	5 (Herbicidal ratio of 90% or more (almost completely withered))	5 (Herbicidal ratio of 90% or more (almost completely withered))	5 (Herbicidal ratio of 90% or more (almost completely withered))	5 (Herbicidal ratio of 90% or more (almost completely withered))	5 (Herbicidal ratio of 90% or more (almost completely withered))	5 (Herbicidal ratio of 90% or more (almost completely withered))	5 (Herbicidal ratio of 90% or more (almost completely withered))	5 (Herbicidal ratio of 90% or more (almost completely withered))
CC(c1nnc2c(C(=O)Nc3nnnn3C)ccc(C(F)(F)F)n12)[S+](C)[O-] (stereo not drawn) [2-053]	4 (Herbicidal ratio of 70% or more and less than 90%)	5 (Herbicidal ratio of 90% or more (almost completely withered))	5 (Herbicidal ratio of 90% or more (almost completely withered))	5 (Herbicidal ratio of 90% or more (almost completely withered))	5 (Herbicidal ratio of 90% or more (almost completely withered))	5 (Herbicidal ratio of 90% or more (almost completely withered))	5 (Herbicidal ratio of 90% or more (almost completely withered))	5 (Herbicidal ratio of 90% or more (almost completely withered))	4 (Herbicidal ratio of 70% or more and less than 90%)
CC(c1nnc2c(C(=O)Nc3nnnn3C)ccc(C(F)(F)F)n12)S(C)(=O)=O (stereo not drawn) [2-054]	5 (Herbicidal ratio of 90% or more (almost completely withered))	5 (Herbicidal ratio of 90% or more (almost completely withered))	5 (Herbicidal ratio of 90% or more (almost completely withered))	4 (Herbicidal ratio of 70% or more and less than 90%)	5 (Herbicidal ratio of 90% or more (almost completely withered))	5 (Herbicidal ratio of 90% or more (almost completely withered))	5 (Herbicidal ratio of 90% or more (almost completely withered))	5 (Herbicidal ratio of 90% or more (almost completely withered))	5 (Herbicidal ratio of 90% or more (almost completely withered))
Cn1nnnc1NC(=O)c1ccc(C(F)(F)F)n2c(Nc3ccccc3)nnc12 [2-056]	1 (Herbicidal ratio of 5% or more and less than 20%)	4 (Herbicidal ratio of 70% or more and less than 90%)	5 (Herbicidal ratio of 90% or more (almost completely withered))	1 (Herbicidal ratio of 5% or more and less than 20%)	5 (Herbicidal ratio of 90% or more (almost completely withered))	3 (Herbicidal ratio of 40% or more and less than 70%)	4 (Herbicidal ratio of 70% or more and less than 90%)	4 (Herbicidal ratio of 70% or more and less than 90%)	3 (Herbicidal ratio of 40% or more and less than 70%)
CSCCc1nnc2c(C(=O)Nc3nnnn3C)ccc(C(F)(F)F)n12 [2-057]	4 (Herbicidal ratio of 70% or more and less than 90%)	5 (Herbicidal ratio of 90% or more (almost completely withered))	5 (Herbicidal ratio of 90% or more (almost completely withered))	4 (Herbicidal ratio of 70% or more and less than 90%)	5 (Herbicidal ratio of 90% or more (almost completely withered))	5 (Herbicidal ratio of 90% or more (almost completely withered))	4 (Herbicidal ratio of 70% or more and less than 90%)	4 (Herbicidal ratio of 70% or more and less than 90%)	4 (Herbicidal ratio of 70% or more and less than 90%)
